We go through one compound from paper PMC6147235 (iScience, 2018).

This assay relates to WT OPS, G51A, T17M, P171Q, P180A. Nature of the assay: Subcellular localization. Type of assay: cell-based, human. The following applies: 10 µM all-trans retinal, P180A in COS-7 cells.

On to `CC1=C(/C=C/C(C)=C/C=C/C(C)=C/C=O)C(C)(C)CCC1` [all-trans retinal], for which the “effect on subcellular localization (PCC and RetP1/1D4)” value is reported as “no effect”.
